Results taken from patent publication US20200011856A1, “Method for Determining the Effectiveness of Treatment for the Prevention of Heartworm Disease” (priority 2017, published 2020).
Several values for one entry are separate records, joined by “and”; a condition that tells them apart may be missing. Identical values can stand only once.

Test system: Dirofilaria immitis JYD strain (ivermectin-resistant)
Assay: Infection of NSG mice with ivermectin-resistant JYD strain D. immitis L3, treatment, recovery and count of worms
Format: in vivo
Conditions: for % Rec, Mean: group mean; for % Rec: individual mice
[1] = 7823 1.0 mg/kg Days 1, 15, 30, 50 JYD Di L3 per NSG mouse, recovery Days 40-42, Table 20
[2] = 7823 5.0 mg/kg Days 1, 15, 30, 50 JYD Di L3 per NSG mouse, recovery Days 40-42, Table 20

CC(C)C[C@H]1C(=O)O[C@H](C)C(=O)N(C)[C@@H](CC(C)(C)F)C(=O)O[C@H](Cc2ccc(C3CCOCC3)cc2)C(=O)N(C)[C@@H](CC(C)C)C(=O)O[C@H](C)C(=O)N(C)[C@@H](CC(C)(C)F)C(=O)O[C@H](Cc2ccc(C3CCOCC3)cc2)C(=O)N1C [compound 8800]
% Red (8800 1 mg/kg Days 1, 15, 30, 50 JYD Di L3 per NSG mouse, Table 18, vs Control): % Red: 67%
% Rec, Mean (8800 1 mg/kg Days 1, 15, 30, 50 JYD Di L3 per NSG mouse, recovery Days 41 and 42, Table 18): 14%
% Rec (8800 1 mg/kg Days 1, 15, 30, 50 JYD Di L3 per NSG mouse, recovery Days 41 and 42, Table 18, 1 mg/kg): 12% (2×) and 16% and 8% and 4% and 26% and 18%
Survival, Mean (in vivo, 1 mg/kg): 7

CC(C)C[C@H]1C(=O)O[C@H](C)C(=O)N(C)[C@@H](CC(C)(C)F)C(=O)O[C@H](Cc2ccc(C(F)(F)F)cc2)C(=O)N(C)[C@@H](CC(C)C)C(=O)O[C@H](C)C(=O)N(C)[C@@H](CC(C)(C)F)C(=O)O[C@H](Cc2ccc(C(F)(F)F)cc2)C(=O)N1C [compound 3615]
% Red (3615 1 mg/kg Days 1, 15, 30, 50 JYD Di L3 per NSG mouse, Table 18, vs Control): % Red: 40%
% Rec, Mean (3615 1 mg/kg Days 1, 15, 30, 50 JYD Di L3 per NSG mouse, recovery Days 41 and 42, Table 18): 26%
% Rec (3615 1 mg/kg Days 1, 15, 30, 50 JYD Di L3 per NSG mouse, recovery Days 41 and 42, Table 18, 1 mg/kg): 24% (2×) and 26% and 30% and 28% and 36% and 16%
Survival, Mean (in vivo, 1 mg/kg): 13

CC(C)C[C@H]1C(=O)O[C@H](C)C(=O)N(C)[C@@H](CC(C)(C)F)C(=O)O[C@H](Cc2ccc(OC(F)(F)F)cc2)C(=O)N(C)[C@@H](CC(C)C)C(=O)O[C@H](C)C(=O)N(C)[C@@H](CC(C)(C)F)C(=O)O[C@H](Cc2ccc(OC(F)(F)F)cc2)C(=O)N1C [compound 2677]
% Rec, Mean (2677 1 mg/kg Days 1, 15, 30, 50 JYD Di L3 per NSG mouse, recovery Days 41 and 42, Table 18): 8%
% Rec (2677 1 mg/kg Days 1, 15, 30, 50 JYD Di L3 per NSG mouse, recovery Days 41 and 42, Table 18, 1 mg/kg): 6% and 4% (3×) and 2% and 18% and 16%
% Red (in vivo, 1 mg/kg): % Red: 81%
Survival, Mean (in vivo, 1 mg/kg): 4

C[C@H]1OC(=O)[C@H](CC2CC2)N(C)C(=O)[C@@H](Cc2ccc(C(C)(C)C)cc2)OC(=O)[C@H](CC(C)(C)F)N(C)C(=O)[C@@H](C)OC(=O)[C@H](CC2CC2)N(C)C(=O)[C@@H](Cc2ccc(C(C)(C)C)cc2)OC(=O)[C@H](CC(C)(C)F)N(C)C1=O [compound 7823]
% Red (7823 0.1 mg/kg Days 1, 15, 30, 50 JYD Di L3 per NSG mouse, Table 20, vs Control): % Red: 83%
% Rec, Mean (7823 0.1 mg/kg Days 1, 15, 30, 50 JYD Di L3 per NSG mouse, recovery Days 40-42, Table 20): 4%
% Rec (7823 0.1 mg/kg Days 1, 15, 30, 50 JYD Di L3 per NSG mouse, recovery Days 40-42, Table 20, 0.1 mg/kg): 6% (2×) and 0% and 8% and 2%
% Red (7823 0.25 mg/kg Days 1, 15, 30, 50 JYD Di L3 per NSG mouse, Table 20, vs Control): % Red: 91%
% Rec, Mean (7823 0.25 mg/kg Days 1, 15, 30, 50 JYD Di L3 per NSG mouse, recovery Days 40-42, Table 20): 2%
% Rec (7823 0.25 mg/kg Days 1, 15, 30, 50 JYD Di L3 per NSG mouse, recovery Days 40-42, Table 20, 0.25 mg/kg): 4% (2×) and 0% (3×)
% Red (7823 0.5 mg/kg Days 1, 15, 30, 50 JYD Di L3 per NSG mouse, Table 20, vs Control): % Red: 87%
% Rec, Mean (7823 0.5 mg/kg Days 1, 15, 30, 50 JYD Di L3 per NSG mouse, recovery Days 40-42, Table 20): 3%
% Rec (7823 0.5 mg/kg Days 1, 15, 30, 50 JYD Di L3 per NSG mouse, recovery Days 40-42, Table 20, 0.5 mg/kg): 0% (2×) and 8% and 4% and 2%
% Red (7823 1 mg/kg Days 1, 15, 30, 50 JYD Di L3 per NSG mouse, Table 18, vs Control): % Red: 98%
% Red (7823 1.0 mg/kg Days 1, 15, 30, 50 JYD Di L3 per NSG mouse, Table 20, vs Control): % Red: 100%
% Rec, Mean [1]: 0%
% Rec [1]: 0%
% Rec, Mean (7823 1 mg/kg Days 1, 15, 30, 50 JYD Di L3 per NSG mouse, recovery Days 41 and 42, Table 18): 1%
% Rec (7823 1 mg/kg Days 1, 15, 30, 50 JYD Di L3 per NSG mouse, recovery Days 41 and 42, Table 18, 1 mg/kg): 2% (2×) and 0% (4×) and 4%
% Red (7823 5.0 mg/kg Days 1, 15, 30, 50 JYD Di L3 per NSG mouse, Table 20, vs Control): % Red: 100%
% Rec, Mean [2]: 0%
% Rec [2]: 0%
Survival, Mean (in vivo, 0.1 mg/kg): 2
Survival, Mean (in vivo, 0.25 mg/kg): 1
Survival, Mean (in vivo, 0.5 mg/kg): 1
Survival (in vivo, 5 mg/kg): 0
Survival, Mean (in vivo, 5 mg/kg): 0

C[C@H]1OC(=O)[C@H](CC(C)(C)C)N(C)C(=O)[C@@H](Cc2ccc(OC(F)(F)F)cc2)OC(=O)[C@H](CC(C)(C)F)N(C)C(=O)[C@@H](C)OC(=O)[C@H](CC(C)(C)C)N(C)C(=O)[C@@H](Cc2ccc(OC(F)(F)F)cc2)OC(=O)[C@H](CC(C)(C)F)N(C)C1=O [compound 5010]
% Red (5010 1 mg/kg Days 1, 15, 30, 50 JYD Di L3 per NSG mouse, Table 18, vs Control): % Red: 33%
% Rec, Mean (5010 1 mg/kg Days 1, 15, 30, 50 JYD Di L3 per NSG mouse, recovery Days 41 and 42, Table 18): 29%
% Rec (5010 1 mg/kg Days 1, 15, 30, 50 JYD Di L3 per NSG mouse, recovery Days 41 and 42, Table 18, 1 mg/kg): 24% (2×) and 36% and 14% and 34% and 30% and 38%
Survival, Mean (in vivo, 1 mg/kg): 14
